We go through 17 compounds from patent US6858638B2, “Substituted indazoles, compositions containing them, method of production and use” (Aventis Pharma S.A., priority 2002, dated 2005).

Format in all cases: biochemical
Test [1] has as its target T1, human FAK (Homo sapiens, UniProt Q05397).
T1 construct: The complete cDNA of human FAK; made in house; host or cells: baculovirus expression system (vector pFastBac HTc)
As to the kind of experiment: FAK autophosphorylation inhibition, time resolved fluorescence (HTRF) assay. The settings on record: 10 μM (values without asterisk); read-out: FAK % inhib at 10 μM. In a few lines: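 Autophosphorylation was detected by europium-cryptate anti-pTyr and XL665 anti-His energy transfer, percent inhibition from the 665/620 ratio relative to no-compound wells. Enzyme: His-FAK full length, 6.6 µg/ml, incubated 1 h at 37 °C, pH 7.2, 15 µM ATP.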

For test [2], the target named is T2, human KDR enzyme (Homo sapiens, UniProt P35968).
T2 construct: The cytoplasmic domain of the human KDR enzyme; GST; made in house; host or cells: SF21 insect cells (baculovirus)
As to the kind of experiment: KDR substrate (PLCγ) phosphorylation, scintillation assay. The settings on record: 10 μM; read-out: KDR % inhib at 10 μM. The essentials: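 Values are percent inhibition relative to the compound-free control, read by scintillation counting of 33P incorporation after EDTA stop. Baculovirus/SF21-expressed GST-KDR cytoplasmic domain (100 ng) acted for 1 h at 37 °C in pH 7.2 MOPS kinase buffer. The substrate was GST-PLCγ SH2-SH3 (2 μg), added with γ33P-ATP and 2 μM unlabeled ATP.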

Test [3] addresses T3, Aurora2 kinase (Homo sapiens, UniProt O14965).
T3 construct: A complete recombinant Aurora2 enzyme; His tag (N); made in house; host or cells: E. coli
T3 sequence (O14965 1-403): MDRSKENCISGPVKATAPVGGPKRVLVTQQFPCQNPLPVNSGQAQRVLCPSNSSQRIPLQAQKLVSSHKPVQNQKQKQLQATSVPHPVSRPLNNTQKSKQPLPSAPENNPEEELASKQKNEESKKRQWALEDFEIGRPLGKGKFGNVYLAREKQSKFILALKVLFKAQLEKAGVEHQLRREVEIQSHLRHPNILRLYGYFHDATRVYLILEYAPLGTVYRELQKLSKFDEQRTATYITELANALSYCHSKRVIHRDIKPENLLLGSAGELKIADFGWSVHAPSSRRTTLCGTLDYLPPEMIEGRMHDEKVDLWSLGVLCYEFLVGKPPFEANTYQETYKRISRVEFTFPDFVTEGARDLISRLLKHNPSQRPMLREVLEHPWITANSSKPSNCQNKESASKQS
As to the kind of experiment: Aurora2 kinase radioactivity scintillation assay using nickel chelate (NuMA substrate). The settings on record: 10 μM; read-out: Aurora2 % inhib at 10 μM. The essentials: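 Read-out is 33P incorporation into His-NuMA (Q1687-H2101, 0.5 μM) captured on nickel chelate, after 30 min at 37 °C with 0.02 μM His-Aurora2 and 1 μM ATP. Expressed as percentage inhibition of uncompounded control activity, background subtracted.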

For test [4], the target named is T4, human IGF1R cytoplasmic domain (Homo sapiens, UniProt P08069).
T4 construct: The human IGF1R cytoplasmic domain was cloned; made in house; host or cells: SF21 insect cells (baculovirus)
As to the kind of experiment: IGF1R autophosphorylation inhibition, time resolved fluorescence (HTRF) assay. To be noted: 10 μM; read-out: IGF1R % inhib at 10 μM. In a few lines: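 GST-tagged human IGF1R cytoplasmic domain from SF21 cells incubated with compound in 50 mM Hepes pH 7.5, 5 mM MnCl2, 50 mM NaCl, […] ATP. Autophosphorylation detected by HTRF (Eu-K anti-phosphotyrosine, XL665 anti-GST) after EDTA/KF stop; percentage inhibition versus no-compound control.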
(Time-resolved FRET reads energy transfer from a long-lived donor to a nearby acceptor.)

T1 sequence (Q05397 whole entry): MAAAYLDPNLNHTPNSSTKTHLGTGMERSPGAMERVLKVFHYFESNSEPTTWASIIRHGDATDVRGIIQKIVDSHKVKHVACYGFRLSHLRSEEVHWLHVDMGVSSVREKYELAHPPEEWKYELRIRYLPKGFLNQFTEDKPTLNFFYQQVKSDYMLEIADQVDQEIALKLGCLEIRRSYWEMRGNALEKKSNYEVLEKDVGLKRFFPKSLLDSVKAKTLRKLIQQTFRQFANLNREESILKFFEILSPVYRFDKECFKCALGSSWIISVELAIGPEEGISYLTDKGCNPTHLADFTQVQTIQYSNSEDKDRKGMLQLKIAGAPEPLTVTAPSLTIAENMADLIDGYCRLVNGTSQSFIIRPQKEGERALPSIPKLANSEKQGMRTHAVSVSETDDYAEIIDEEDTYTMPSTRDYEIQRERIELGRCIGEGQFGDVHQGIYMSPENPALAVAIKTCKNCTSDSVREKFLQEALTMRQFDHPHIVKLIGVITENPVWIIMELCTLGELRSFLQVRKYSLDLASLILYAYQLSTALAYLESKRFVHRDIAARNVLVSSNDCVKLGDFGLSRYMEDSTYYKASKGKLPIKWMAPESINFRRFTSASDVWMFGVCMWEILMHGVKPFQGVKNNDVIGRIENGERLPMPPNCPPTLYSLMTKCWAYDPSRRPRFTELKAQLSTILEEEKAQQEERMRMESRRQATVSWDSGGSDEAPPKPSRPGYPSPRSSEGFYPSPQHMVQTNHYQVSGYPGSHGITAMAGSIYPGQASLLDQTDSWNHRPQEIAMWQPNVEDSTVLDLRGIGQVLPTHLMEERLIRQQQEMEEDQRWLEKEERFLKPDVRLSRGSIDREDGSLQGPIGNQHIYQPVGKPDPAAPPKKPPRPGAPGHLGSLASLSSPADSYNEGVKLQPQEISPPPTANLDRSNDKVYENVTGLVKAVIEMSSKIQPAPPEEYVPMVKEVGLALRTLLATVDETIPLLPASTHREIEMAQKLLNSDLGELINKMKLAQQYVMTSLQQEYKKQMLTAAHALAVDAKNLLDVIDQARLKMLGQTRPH
T4 sequence (P08069 960-1367 limits assumed): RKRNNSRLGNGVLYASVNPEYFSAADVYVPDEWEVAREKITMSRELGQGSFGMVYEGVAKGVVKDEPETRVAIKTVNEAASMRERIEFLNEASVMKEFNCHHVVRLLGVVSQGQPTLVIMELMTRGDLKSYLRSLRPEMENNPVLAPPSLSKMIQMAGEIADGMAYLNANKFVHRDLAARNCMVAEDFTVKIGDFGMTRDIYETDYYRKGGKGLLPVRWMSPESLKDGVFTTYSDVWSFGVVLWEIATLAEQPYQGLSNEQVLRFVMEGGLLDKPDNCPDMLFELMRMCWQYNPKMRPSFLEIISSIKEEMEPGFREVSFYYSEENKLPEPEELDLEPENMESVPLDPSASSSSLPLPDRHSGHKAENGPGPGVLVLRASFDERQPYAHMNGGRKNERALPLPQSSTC
T2 sequence (P35968 786-1356 limits assumed): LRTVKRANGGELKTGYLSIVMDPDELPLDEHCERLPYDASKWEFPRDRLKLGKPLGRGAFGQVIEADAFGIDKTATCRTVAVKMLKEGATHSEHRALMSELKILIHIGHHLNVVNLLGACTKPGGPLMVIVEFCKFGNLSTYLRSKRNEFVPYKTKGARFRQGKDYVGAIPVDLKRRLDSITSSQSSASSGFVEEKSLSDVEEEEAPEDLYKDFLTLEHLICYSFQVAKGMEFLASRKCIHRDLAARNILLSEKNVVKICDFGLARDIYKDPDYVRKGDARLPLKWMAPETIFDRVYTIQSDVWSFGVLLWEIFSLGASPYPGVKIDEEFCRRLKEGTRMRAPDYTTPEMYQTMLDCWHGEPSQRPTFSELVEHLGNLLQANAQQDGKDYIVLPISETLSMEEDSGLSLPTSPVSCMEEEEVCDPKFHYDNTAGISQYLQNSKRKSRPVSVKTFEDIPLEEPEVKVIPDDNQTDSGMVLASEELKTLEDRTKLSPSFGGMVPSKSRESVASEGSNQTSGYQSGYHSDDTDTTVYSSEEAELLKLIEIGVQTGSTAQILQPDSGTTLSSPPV

Take `CS(=O)(=O)c1ccccc1S(=O)(=O)Nc1ccc2[nH]nc(-c3ccc(O)cc3)c2c1` [Example 202, N-[3-(4-Hydroxyphenyl)-1H-indazol-5-yl]-2-methanesulfonyl-benzenesulfonamide]: the inhibition at 10 µM in test [1] worked out at 97%; in test [2] it was 79%; in test [3] it was 96%; in test [4] it was 83%.

With `CC(C)c1cccc(-c2n[nH]c3ccc(NS(=O)(=O)c4ccccc4S(C)(=O)=O)cc23)c1` [Example 203, N-[3-(3-Isopropylphenyl)-1H-indazol-5-yl]-2-methanesulfonyl-benzenesulfonamide], the inhibition at 10 µM in test [1] was 86%; in test [2], 39%; in test [3], 84%; in test [4] it was 59%.

Consider `Cc1ccc(-c2n[nH]c3ccc(NS(=O)(=O)c4ccccc4S(C)(=O)=O)cc23)cc1N` [Example 204, N-[3-(3-Amino-4-methyl-phenyl)-1H-indazol-5-yl]-2-methanesulfonyl-benzenesulfonamide], for which the inhibition at 10 µM was 97% in test [1], 67% in test [2], 95% in test [3] and 78% in test [4].

Consider `CS(=O)(=O)c1ccccc1S(=O)(=O)Nc1ccc2[nH]nc(-c3ccc(Cl)c(Cl)c3)c2c1` [Example 205, N-[3-(3,4-Dichlorophenyl)-1H-indazol-5-yl]-2-methanesulfonyl-benzenesulfonamide], for which the inhibition at 10 µM stood at 90% in test [1], 42% in test [2], 86% in test [3] and 66% in test [4].

In the case of `CS(=O)(=O)c1ccccc1S(=O)(=O)Nc1ccc2[nH]nc(-c3ccc(OC(F)(F)F)cc3)c2c1` [Example 206, N-[3-(4-Trifluoromethoxy-phenyl)-1H-indazol-5-yl]-2-methanesulfonyl-benzenesulfonamide], the inhibition at 10 µM in test [1] came to 58%; in test [2], 48%; in test [3], 85%; in test [4], 61%.

Take `CC(=O)c1ccc(-c2n[nH]c3ccc(NS(=O)(=O)c4ccccc4S(C)(=O)=O)cc23)cc1` [Example 207, N-[3-(4-Acetylphenyl)-1H-indazol-5-yl]-2-methanesulfonyl-benzenesulfonamide]: the inhibition at 10 µM in test [1] was 91%; in test [2], 45%; in test [3], 94%; in test [4], 56%.

As for `CS(=O)(=O)c1ccccc1S(=O)(=O)Nc1ccc2[nH]nc(-c3cccc(Cl)c3Cl)c2c1` [Example 208, N-[3-(2,3-Dichlorophenyl)-1H-indazol-5-yl]-2-methanesulfonyl-benzenesulfonamide], the inhibition at 10 µM in test [1] was -1%; in test [2], 25%; in test [3], 56%; in test [4] it was 0%.

Turning to `CS(=O)(=O)c1ccccc1S(=O)(=O)Nc1ccc2[nH]nc(-c3ccc(OCc4ccccc4)cc3)c2c1` [Example 209, N-[3-(4-Benzyloxyphenyl)-1H-indazol-5-yl]-2-methanesulfonyl-benzenesulfonamide], the inhibition at 10 µM in test [1] was 55%; in test [2], 34%; in test [3] it was 67%; in test [4], 16%.

Turning to `CS(=O)(=O)c1ccccc1S(=O)(=O)Nc1ccc2[nH]nc(-c3ccc(-c4ccccc4)c(F)c3)c2c1` [Example 210, N-[3-(2-Fluorobiphenyl-4-yl)-1H-indazol-5-yl]-2-methanesulfonyl-benzenesulfonamide], the inhibition at 10 µM in test [1] was found to be 70%; in test [2], 50%; in test [3], 65%; in test [4], 0%.

On to `CS(=O)(=O)c1ccccc1S(=O)(=O)Nc1ccc2[nH]nc(-c3cc(Br)cc(Br)c3)c2c1` [Example 211, N-[3-(3,5-Dibromophenyl)-1H-indazol-5-yl]-2-methanesulfonyl-benzenesulfonamide], for which the inhibition at 10 µM in test [1] was found to be 95%; in test [2], 21%; in test [3], 79%; in test [4], 45%.

As for `CS(=O)(=O)c1ccccc1S(=O)(=O)Nc1ccc2[nH]nc(-c3ccc(Br)cc3F)c2c1` [Example 212, N-[3-(4-Bromo-2-fluoro-phenyl)-1H-indazol-5-yl]-2-methanesulfonyl-benzenesulfonamide], the inhibition at 10 µM in test [1] is 72%; in test [2], 47%; in test [3], 86%; in test [4] it was 65%.

In the case of `CCSc1ccc(-c2n[nH]c3ccc(NS(=O)(=O)c4ccccc4S(C)(=O)=O)cc23)cc1` [Example 213, N-[3-(4-Ethylsulfanylphenyl)-1H-indazol-5-yl]-2-methanesulfonyl-benzenesulfonamide], the inhibition at 10 µM in test [1] came out at 80%; in test [2] it was 68%; in test [3] it was 89%; in test [4], 77%.

Consider `COc1ccc(-c2n[nH]c3ccc(NS(=O)(=O)c4ccccc4S(C)(=O)=O)cc23)c(OC)c1OC` [Example 214, 2-Methanesulfonyl-N-[3-(2,3,4-trimethoxyphenyl)-1H-indazol-5-yl]-benzenesulfonamide], for which the inhibition at 10 µM was 60% in test [1], 56% in test [2], 67% in test [3] and 21% in test [4].

Turning to `CS(=O)(=O)c1ccccc1S(=O)(=O)Nc1ccc2[nH]nc(-c3ccc(C#N)cc3)c2c1` [Example 216, N-[3-(4-Cyanophenyl)-1H-indazol-5-yl]-2-methanesulfonyl-benzenesulfonamide], the inhibition at 10 µM in test [1] came out at 96%; in test [2], 32%; in test [3] it was 91%; in test [4], 86%.

With `CS(=O)(=O)c1ccccc1S(=O)(=O)Nc1ccc2[nH]nc(-c3ccc(F)cc3F)c2c1` [Example 217, N-[3-(2,4-Difluorophenyl)-1H-indazol-5-yl]-2-methanesulfonyl-benzenesulfonamide], the inhibition at 10 µM was determined as 95% in test [1], 70% in test [2], 92% in test [3] and 83% in test [4].

For the compound `CS(=O)(=O)c1ccccc1S(=O)(=O)Nc1ccc2[nH]nc(-c3ccc(I)cc3)c2c1` [Example 218, N-[3-(4-Iodophenyl)-1H-indazol-5-yl]-2-methanesulfonyl-benzenesulfonamide], the inhibition at 10 µM in test [1] was 15%; in test [2], 37%; in test [3], 68%; in test [4], 20%.

As for `CS(=O)(=O)c1ccccc1S(=O)(=O)Nc1ccc2[nH]nc(-c3cccc(OC(F)(F)F)c3)c2c1` [Example 219, N-[3-(3-Trifluoromethoxy-phenyl)-1H-indazol-5-yl]-2-methanesulfonyl-benzenesulfonamide], the inhibition at 10 µM in test [1] came out at 87%; in test [2], 31%; in test [3], 86%; in test [4] it was 60%.
